From US6358982B1, “Heterocyclyl sulphonamide derivatives” (Eli Lilly and Company, priority 1998, dated 2002) come the findings set out here.

The test deals with T1, human GluR4B receptor (Homo sapiens, UniProt P48058).
T1 construct: expressed in transfected cells
The experiment in a line: potentiation of agonist-induced excitability of human GluR4B receptor expressed in HEK 293 cells (Fluo-3 calcium fluorescence). Type of test: cell-based. The note with it: human GluR4B expressed in HEK 293 cells. The source says:
The ability of compounds of formula I to potentiate glutamate receptor-mediated response may be determined using fluorescent calcium indicator dyes (Molecular Probes, Eugene, Oreg., Fluo-3) and by measuring glutamate-evoked efflux of calcium into GluR4 transfected HEK293 cells, as described in more detail below.
In one test, 96 well plates containing confluent monolayers of HEK cells stably expressing human GluR4B (obtained as described in European Patent Application Publication Number EP-A1-583917) are prepared. The tissue culture medium in the wells is then discarded, and the wells are each washed once with 200 μl of buffer (glucose, 10 mM, sodium chloride, 138 mM, magnesium chloride, 1 mM, potassium chloride, 5 mM, calcium chloride, 5 mM, N-[2-hydroxyethyl]-piperazine-N-[2-ethanesulfonic acid], 10 mM, to pH 7.1 to 7.3). […]
Each test is then performed as follows. […] A second fluorescent reading is taken after 5 minutes incubation. 15 μl of 400 μM glutamate solution is then added to each well (final glutamate concentration […]), and a third reading is taken. The activities of test compounds and cyclothiazide solutions are determined by subtracting the second from the third reading (fluorescence due to addition of glutamate in the presence or absence of test compound or cyclothiazide) and are expressed relative to enhance fluorescence produced by 100 μM cyclothiazide.

T1 sequence (P48058 21-902): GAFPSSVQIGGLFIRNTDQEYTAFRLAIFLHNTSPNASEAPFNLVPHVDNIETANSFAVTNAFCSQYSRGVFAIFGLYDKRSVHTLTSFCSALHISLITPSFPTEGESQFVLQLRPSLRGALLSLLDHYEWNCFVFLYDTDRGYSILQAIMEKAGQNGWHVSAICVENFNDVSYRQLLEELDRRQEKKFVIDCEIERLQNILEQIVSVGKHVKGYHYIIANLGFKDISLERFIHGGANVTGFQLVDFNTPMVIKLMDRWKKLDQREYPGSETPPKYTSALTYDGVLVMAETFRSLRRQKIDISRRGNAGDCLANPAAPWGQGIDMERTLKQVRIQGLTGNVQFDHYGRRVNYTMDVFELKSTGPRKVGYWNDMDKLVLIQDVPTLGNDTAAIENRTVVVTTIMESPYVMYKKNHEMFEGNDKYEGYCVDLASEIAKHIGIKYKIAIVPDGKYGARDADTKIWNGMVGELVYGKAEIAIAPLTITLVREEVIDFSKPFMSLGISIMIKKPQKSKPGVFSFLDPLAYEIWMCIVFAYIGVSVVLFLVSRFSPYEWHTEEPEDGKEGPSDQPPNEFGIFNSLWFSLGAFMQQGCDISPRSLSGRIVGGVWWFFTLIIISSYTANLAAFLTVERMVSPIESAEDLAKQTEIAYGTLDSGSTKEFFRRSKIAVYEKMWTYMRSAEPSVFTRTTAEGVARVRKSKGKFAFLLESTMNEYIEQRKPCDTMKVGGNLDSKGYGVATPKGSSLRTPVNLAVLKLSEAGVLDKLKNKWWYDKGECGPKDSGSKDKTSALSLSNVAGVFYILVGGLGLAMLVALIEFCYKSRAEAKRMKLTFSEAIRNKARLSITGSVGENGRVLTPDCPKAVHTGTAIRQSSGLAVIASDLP

As for `NS(=O)(=O)c1cc2c(cc1Cl)NC(C1CC3C=CC1C3)NS2(=O)=O` (stereo not shown) [cyclothiazide], the “potentiation of agonist-induced excitability of human GluR4B receptor” value is “potentiate”.
